The results in this text go back to patent publication US20070092460A1, “Silylated compounds as precursors for self-tanning compositions” (priority 2000, published 2007).

The experiment can be described thus: in vitro colour development test with lysine solution (Bobin et al.). The protocol:
0.02 mol/l of lysine are dissolved in a phosphate buffer system in accordance with DIN 19268 (pH 7). 10 ml of this solution are treated with 0.002 mol of 1,3-bis(trimethylsiloxy)-2-propanone and the mixture is stirred at 32-35° C. for 72 h.
As comparison, 10 ml of the lysine solution are treated with 0.002 mol of dihydroxyacetone and stirred at 32-35° C. for 72 h.

Structures are written as SMILES.

On to `C[Si](C)(C)OCC(=O)CO[Si](C)(C)C` [1,3-bis(trimethylsiloxy)-2-propanone, 1,3-bis(Trimethylsiloxy)-2-propanone], for which, for the setting “0.002 mol substance in 10 ml of 0.02 mol/l lysine in phosphate buffer pH 7, stirred at 32-35° C. for 72 h”, the brown coloration entry is reported as “comparable brown coloration”. Also, where the note is “compared with dihydroxyacetone, lysine in phosphate buffer pH 7, 32-35° C.”, the “rate of development of the brown coloration” value is reported as “develops more slowly”.
